pEC50, pIC50, pKi: −log10 of the molar value. In brackets after ≈: the same amount, converted by molar mass. Values belong to the compound of their own block, whether it stands above or below them.
Legend:
Heat shock protein HSP90 = Heat shock protein HSP90 (Homo sapiens, UniProt P07900+P08238); test: Inhibition of HSP90 (unknown origin); type: protein assay
HCT-116 = test: Antiproliferative activity against human HCT-116 cells; type: functional, cell-based
NCI-N87 = test: cells; details: Homo sapiens, NCI-N87, 96 h
physchem = details: buffer
Plasmodium falciparum [1] = test: Antimalarial activity against Plasmodium falciparum 3D7; type: functional, organism-based
[2] = biological target: Transient receptor potential cation channel subfamily V member 1 (Homo sapiens, UniProt Q8NER1); test: Antagonist activity at TRPV1 (unknown origin)
[3] = biological target: cGMP-specific 3',5'-cyclic phosphodiesterase (Homo sapiens, UniProt O76074); test: Inhibition of PDE5 (unknown origin) using FAM-cGMP or FAM-cAMP as substrate incubated for 60 mins and measured by fluorescence polarization assay
[4] = Lipophilicity, logD of compound; type: physicochemical; details: octanol/water
[5] = biological target: T1, Glucose-dependent insulinotropic receptor (Homo sapiens, UniProt Q8TDV5); test: Agonist activity at GPR119 (unknown origin); type: functional
T1 sequence (Q8TDV5 whole entry): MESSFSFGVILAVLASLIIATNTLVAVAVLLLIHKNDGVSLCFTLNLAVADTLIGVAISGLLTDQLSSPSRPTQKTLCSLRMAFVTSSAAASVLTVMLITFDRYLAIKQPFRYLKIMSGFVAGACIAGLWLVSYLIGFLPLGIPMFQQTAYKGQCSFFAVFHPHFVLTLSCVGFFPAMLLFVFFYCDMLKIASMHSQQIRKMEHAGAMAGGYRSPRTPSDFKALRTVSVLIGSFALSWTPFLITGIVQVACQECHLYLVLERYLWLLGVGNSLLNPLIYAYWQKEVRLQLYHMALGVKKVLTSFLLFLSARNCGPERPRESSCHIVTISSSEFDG

P2Y purinoceptor 12 = P2Y purinoceptor 12 (Homo sapiens, UniProt Q9H244); test: Antagonist activity at P2Y12 receptor in human platelet rich plasma; type: functional
Cannabinoid receptor 2 = Cannabinoid receptor 2 (Homo sapiens, UniProt P34972); test: Binding affinity towards human CB2 receptor
[6] = Inhibition of PI3K (unknown origin) activity; parameters: species or system Homo sapiens
[7] = biological target: Voltage-dependent T-type calcium channel subunit alpha-1I (Homo sapiens, UniProt Q9P0X4); test: Inhibition of Cav3.3 subunit 1alpha-l(unknown origin) stably transfected in HEK293 cells measured by FLIPR assay; type: cell-based
[8] = Metabolic stability in human liver microsomes assessed as intrinsic clearance at 1 uM and measured by LC/MS-MS analysis; type: ADME, Microsome; details: read-out: CLH
Hepatitis C virus = test: Antiviral activity against HCV GT1b-genotype; type: functional, organism-based, Hepacivirus hominis
[9] = buffer
[10] = biological target: Oxysterols receptor LXR-beta (Mus musculus, UniProt Q60644); test: Agonist activity at mouse LXRbeta
[11] = Inhibition of rabbit aortic ACAT; parameters: species or system Oryctolagus cuniculus
[12] = biological target: Retinoic acid receptor beta (Homo sapiens, UniProt P10826); test: Agonist activity at human RAR-beta2 receptor
[13] = biological target: 3',5'-cyclic-AMP phosphodiesterase 4D (Homo sapiens, UniProt Q08499); test: Inhibition of PDE4D (unknown origin)
[14] = system: Trypanosoma brucei brucei; test: Antitrypanosomal activity against Trypanosoma brucei brucei S427 incubated for 48 hrs by PrestoBlue dye based fluorescence assay; type: functional, organism-based; details: S427, 48 h
Plasmodium falciparum [15] = test: Antimalarial activity against blood stage chloroquine-sensitive Plasmodium falciparum 3D7 infected in human red blood cells measured by [3H]hypoxanthine incorporation assay; type: functional, organism-based, RBC; details: 3D7, Erythrocyte
[16] = biological target: Tyrosine-protein kinase SYK (Homo sapiens, UniProt P43405); test: Inhibition of SYK (unknown origin)

Sequence of Voltage-dependent T-type calcium channel subunit alpha-1I (Q9P0X4 whole entry): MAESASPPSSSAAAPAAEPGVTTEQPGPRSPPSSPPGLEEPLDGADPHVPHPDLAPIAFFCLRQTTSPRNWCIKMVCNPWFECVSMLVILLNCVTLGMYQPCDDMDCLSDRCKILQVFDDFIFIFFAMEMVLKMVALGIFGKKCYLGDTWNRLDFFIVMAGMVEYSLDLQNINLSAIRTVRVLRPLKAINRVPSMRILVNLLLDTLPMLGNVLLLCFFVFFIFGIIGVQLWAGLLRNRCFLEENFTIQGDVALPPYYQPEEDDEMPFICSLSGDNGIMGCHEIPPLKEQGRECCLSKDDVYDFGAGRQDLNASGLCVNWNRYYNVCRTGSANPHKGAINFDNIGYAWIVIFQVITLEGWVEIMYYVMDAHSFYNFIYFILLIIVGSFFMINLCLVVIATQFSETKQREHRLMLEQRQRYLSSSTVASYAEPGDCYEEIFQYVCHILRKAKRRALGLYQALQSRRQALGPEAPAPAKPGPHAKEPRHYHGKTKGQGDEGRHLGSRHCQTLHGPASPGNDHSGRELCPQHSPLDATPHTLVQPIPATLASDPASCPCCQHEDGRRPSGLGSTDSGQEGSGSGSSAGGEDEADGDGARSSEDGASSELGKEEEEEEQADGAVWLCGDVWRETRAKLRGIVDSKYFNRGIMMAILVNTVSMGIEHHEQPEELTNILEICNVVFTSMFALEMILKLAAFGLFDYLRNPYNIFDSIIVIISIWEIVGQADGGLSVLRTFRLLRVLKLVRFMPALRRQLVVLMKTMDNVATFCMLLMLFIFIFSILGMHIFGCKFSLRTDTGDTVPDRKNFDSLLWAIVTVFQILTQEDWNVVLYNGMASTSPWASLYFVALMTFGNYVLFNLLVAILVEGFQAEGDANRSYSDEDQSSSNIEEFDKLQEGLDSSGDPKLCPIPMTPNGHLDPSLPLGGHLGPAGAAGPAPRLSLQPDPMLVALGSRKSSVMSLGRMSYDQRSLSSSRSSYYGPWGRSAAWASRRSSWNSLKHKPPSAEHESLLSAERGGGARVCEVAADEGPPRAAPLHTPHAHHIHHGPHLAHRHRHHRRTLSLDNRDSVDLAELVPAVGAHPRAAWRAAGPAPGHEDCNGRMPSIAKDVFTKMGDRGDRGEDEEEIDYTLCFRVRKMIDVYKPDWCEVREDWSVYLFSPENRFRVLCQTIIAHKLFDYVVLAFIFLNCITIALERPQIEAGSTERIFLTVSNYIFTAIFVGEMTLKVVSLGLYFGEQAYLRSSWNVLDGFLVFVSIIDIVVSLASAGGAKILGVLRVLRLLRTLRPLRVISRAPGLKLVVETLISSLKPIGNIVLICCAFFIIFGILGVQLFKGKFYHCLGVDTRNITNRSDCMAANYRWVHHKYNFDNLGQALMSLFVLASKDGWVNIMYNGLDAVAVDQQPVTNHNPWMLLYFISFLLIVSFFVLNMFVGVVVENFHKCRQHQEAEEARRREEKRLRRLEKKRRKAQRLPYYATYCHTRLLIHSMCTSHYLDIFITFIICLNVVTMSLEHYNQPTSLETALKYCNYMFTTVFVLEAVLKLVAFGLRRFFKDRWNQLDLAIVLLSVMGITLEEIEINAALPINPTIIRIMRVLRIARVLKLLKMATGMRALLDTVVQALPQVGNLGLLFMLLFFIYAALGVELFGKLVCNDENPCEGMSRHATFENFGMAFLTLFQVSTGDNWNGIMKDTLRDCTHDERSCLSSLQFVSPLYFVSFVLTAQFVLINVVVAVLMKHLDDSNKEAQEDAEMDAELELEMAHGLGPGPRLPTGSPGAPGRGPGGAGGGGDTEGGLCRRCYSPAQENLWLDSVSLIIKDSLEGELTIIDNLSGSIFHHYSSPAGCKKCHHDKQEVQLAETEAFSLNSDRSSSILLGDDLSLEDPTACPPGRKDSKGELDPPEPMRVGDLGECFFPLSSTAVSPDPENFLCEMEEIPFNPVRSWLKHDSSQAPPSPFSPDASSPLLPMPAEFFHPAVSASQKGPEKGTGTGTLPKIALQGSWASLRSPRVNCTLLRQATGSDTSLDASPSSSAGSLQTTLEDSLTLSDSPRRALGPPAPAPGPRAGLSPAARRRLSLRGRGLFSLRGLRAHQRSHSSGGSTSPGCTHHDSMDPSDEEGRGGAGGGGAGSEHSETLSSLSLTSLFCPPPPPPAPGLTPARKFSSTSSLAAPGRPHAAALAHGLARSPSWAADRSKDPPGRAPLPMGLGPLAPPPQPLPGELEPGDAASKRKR
Sequence of Retinoic acid receptor beta (P10826 whole entry): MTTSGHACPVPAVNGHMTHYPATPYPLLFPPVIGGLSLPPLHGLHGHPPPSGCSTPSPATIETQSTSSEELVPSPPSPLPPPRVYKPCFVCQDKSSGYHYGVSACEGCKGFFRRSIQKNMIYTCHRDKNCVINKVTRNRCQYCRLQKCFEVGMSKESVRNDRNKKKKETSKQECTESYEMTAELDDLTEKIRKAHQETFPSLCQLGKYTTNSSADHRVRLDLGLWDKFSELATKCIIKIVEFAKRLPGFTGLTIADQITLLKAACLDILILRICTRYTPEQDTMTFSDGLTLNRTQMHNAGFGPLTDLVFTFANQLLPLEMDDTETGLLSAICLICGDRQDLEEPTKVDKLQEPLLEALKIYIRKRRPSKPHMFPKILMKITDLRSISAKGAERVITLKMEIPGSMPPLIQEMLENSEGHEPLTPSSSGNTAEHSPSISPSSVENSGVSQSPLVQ
Sequence of Transient receptor potential cation channel subfamily V member 1 (Q8NER1 whole entry): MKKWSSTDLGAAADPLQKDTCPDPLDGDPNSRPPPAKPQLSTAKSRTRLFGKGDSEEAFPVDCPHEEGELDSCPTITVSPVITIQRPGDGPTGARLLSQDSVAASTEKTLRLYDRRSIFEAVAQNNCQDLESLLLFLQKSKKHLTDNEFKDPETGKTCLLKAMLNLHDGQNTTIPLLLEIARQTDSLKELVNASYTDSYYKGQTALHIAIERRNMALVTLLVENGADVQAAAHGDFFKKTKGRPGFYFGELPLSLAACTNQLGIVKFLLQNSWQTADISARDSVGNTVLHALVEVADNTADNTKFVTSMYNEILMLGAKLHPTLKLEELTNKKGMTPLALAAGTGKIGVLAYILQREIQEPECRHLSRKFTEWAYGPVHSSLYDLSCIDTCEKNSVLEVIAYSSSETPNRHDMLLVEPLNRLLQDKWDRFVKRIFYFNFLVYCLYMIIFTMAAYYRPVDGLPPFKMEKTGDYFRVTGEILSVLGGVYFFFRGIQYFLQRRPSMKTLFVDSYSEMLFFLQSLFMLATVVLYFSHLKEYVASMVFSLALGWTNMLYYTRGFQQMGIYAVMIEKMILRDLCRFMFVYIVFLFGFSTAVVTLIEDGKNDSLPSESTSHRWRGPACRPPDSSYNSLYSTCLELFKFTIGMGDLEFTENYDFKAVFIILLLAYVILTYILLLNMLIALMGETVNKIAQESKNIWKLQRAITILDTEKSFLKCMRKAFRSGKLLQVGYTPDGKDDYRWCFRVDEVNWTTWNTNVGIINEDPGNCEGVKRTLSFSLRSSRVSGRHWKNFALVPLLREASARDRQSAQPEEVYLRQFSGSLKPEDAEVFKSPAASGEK
Sequence of Cannabinoid receptor 2 (P34972 whole entry): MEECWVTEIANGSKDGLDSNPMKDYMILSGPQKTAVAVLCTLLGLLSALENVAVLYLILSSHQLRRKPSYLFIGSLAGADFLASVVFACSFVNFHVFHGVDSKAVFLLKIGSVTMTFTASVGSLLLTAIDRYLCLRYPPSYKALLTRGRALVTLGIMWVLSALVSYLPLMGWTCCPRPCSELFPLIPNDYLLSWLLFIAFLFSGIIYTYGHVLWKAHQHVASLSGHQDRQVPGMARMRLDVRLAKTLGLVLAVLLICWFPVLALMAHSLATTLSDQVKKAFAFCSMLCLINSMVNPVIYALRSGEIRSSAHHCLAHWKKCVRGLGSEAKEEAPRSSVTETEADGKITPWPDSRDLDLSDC
Sequence of Oxysterols receptor LXR-beta (Q60644 whole entry): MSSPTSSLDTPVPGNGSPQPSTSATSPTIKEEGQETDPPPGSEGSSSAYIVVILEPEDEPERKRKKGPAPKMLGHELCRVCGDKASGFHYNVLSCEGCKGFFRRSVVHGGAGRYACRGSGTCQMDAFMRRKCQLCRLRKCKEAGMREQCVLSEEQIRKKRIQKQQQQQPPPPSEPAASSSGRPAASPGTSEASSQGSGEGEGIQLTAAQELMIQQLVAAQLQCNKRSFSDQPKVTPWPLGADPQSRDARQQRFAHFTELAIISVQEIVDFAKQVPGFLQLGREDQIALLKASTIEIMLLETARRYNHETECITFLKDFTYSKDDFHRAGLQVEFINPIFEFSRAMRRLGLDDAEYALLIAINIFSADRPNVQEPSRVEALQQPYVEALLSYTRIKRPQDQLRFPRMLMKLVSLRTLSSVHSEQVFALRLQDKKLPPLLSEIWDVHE
Sequence of P2Y purinoceptor 12 (Q9H244 whole entry): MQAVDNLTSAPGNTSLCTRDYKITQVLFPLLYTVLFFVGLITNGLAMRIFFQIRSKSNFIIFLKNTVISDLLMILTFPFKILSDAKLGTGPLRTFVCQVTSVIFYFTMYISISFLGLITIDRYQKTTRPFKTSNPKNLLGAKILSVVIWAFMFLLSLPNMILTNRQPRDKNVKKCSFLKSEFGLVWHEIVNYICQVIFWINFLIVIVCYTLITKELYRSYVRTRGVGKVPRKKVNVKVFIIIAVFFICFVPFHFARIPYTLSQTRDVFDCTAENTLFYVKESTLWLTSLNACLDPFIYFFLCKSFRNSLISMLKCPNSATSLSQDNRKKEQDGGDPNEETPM

logD [4]: 3.3 | solubility thermodynamic (physchem): 6 µM | pEC50 [5]: 8.22
SMILES: CC(C)c1nc(N2CCN(c3ncc(OCc4ccncc4C#N)cn3)CC2)no1

solubility thermodynamic (physchem): 20 µg/mL | IC50 [6]: 0.022 µg/mL (≈ 0.0388 µM)
SMILES: CCN1CCN(c2cc(F)c(NC(=O)N3CCc4c(-c5cnc(N)nc5)nc(N5CCOCC5)nc43)c(F)c2)CC1

pIC50 [11]: 7.08 | solubility thermodynamic (physchem): 19000 µg/mL
SMILES: CC(C)c1cccc(C(C)C)c1NC(=O)CN1CCN(CCSc2nc3ccccc3o2)CC1

pIC50 [13]: 7.49 | solubility thermodynamic (physchem): 920 µg/mL
SMILES: O=C(O)C1CCC(c2cc3cccnc3c(-c3cccc(F)c3)n2)CC1 (centres undefined)

pEC50 [14]: 7.89
SMILES: CN1CCCN(c2ncc(-c3ccc4c(Nc5cnccn5)ccnc4c3)cn2)CC1

solubility thermodynamic (physchem): 39 µM | pEC50 (Plasmodium falciparum [15]): 6.92
SMILES: Cc1ccc(-c2cc(C(=O)Nc3cccnc3)c3cc(F)ccc3n2)cc1

pIC50 [16]: 7.10 | solubility thermodynamic (physchem): 0.216 µg/mL
SMILES: CC(C)N1C[C@H]2C[C@@H]1CN2c1ccc(Nc2nc(-c3ccc4cn[nH]c4c3)cn3ccnc23)cc1

More lines, now with the values behind:

SMILES: CCc1cc(C(=O)N2Cc3ccccc3C2)c(O)cc1O
Kd (Heat shock protein HSP90): 0.54 nM | pIC50 (HCT-116): 7.51

SMILES: CSc1nc(N)nc(-c2c(Cl)cc3c4c(cccc24)COC3)n1
pIC50 (NCI-N87): 6.24 | solubility thermodynamic (physchem): 29 µM

SMILES: O=c1cc(-c2ccc(Cc3ccc(OC(F)(F)F)cc3)cc2)[nH]c2ccccc12
pIC50 (Plasmodium falciparum [1]): 6.93 | solubility thermodynamic (physchem): 30 µM

SMILES: CC(=O)Nc1nc2c(Oc3cc(C4=CCC(C(F)(F)F)CC4)ncn3)cccc2s1 (centres undefined)
solubility thermodynamic (physchem): 13 µg/mL | pIC50 [2]: 7.57

SMILES: COc1ccc(CNc2c(CO)cnc3c(C4CC4)cc(C#N)cc23)cc1Cl
pIC50 [3]: 9.43 | solubility thermodynamic (physchem): 3.9 µM

SMILES: CCOC(=O)c1cc(C#N)c(N2CCC(C(=O)NS(=O)(=O)Cc3ccccc3)CC2)nc1C
solubility thermodynamic (physchem): 2.99 µM | pIC50 (P2Y purinoceptor 12): 5.44

SMILES: CCCCCn1c(=O)c(C(=O)NC23CC4CC(CC(C4)C2)C3)c(O)c2ccc(F)cc21
pKi (Cannabinoid receptor 2): 9.10 | solubility thermodynamic (physchem): 1.5 µg/mL

SMILES: C[C@@H]1CN(Cc2ccccc2)c2cnccc2[C@H](C)N1C(=O)NCc1ccccc1
pIC50 [7]: 7.26 | solubility thermodynamic (physchem): 27 µg/mL | microsomal CLint at 1 µM [8]: 56 µL/min/mg

SMILES: C[C@@H]1CN(Cc2ccccc2)c2ccccc2[C@H](C)N1C(=O)NCc1ccccc1
pIC50 [7]: 8.22 | solubility thermodynamic (physchem): 1 µg/mL | microsomal CLint at 1 µM [8]: > 1250 µL/min/mg

SMILES: COc1c(/C=C/c2ccc(NS(C)(=O)=O)cc2)cc(N2CCC(=O)NC2=O)cc1C(C)(C)C
pEC50 (Hepatitis C virus): 9.52 | Therm_solubility [9]: 20700 µg/mL

SMILES: O=C1c2c(Cl)c(Cl)c(Cl)c(Cl)c2C(=O)N1c1ccccc1/C=C\c1ccccc1
pEC50 [10]: 6.52 | solubility thermodynamic (physchem): 0.0036 µg/mL

SMILES: CC(C)c1cccc(C(C)C)c1NC(=O)CCCCCCCCSc1nc2ccccc2o1
pIC50 [11]: 8.40 | Therm_solubility [9]: 0.03 µg/mL

SMILES: CCCCCCCCc1ccc(-c2ccc(C(=O)O)cc2)cc1
pEC50 [12]: 5.16 | solubility thermodynamic (physchem): 1 µg/mL

SMILES: COc1ccc2c(=O)cc(-c3cnn(Cc4ccc(OC(F)(F)F)cc4)c3)[nH]c2c1
pIC50 (Plasmodium falciparum [1]): 7.48 | solubility thermodynamic (physchem): 0.3 µM

SMILES: CCCCOCCOc1nc(-c2ccc(C(=O)O)cc2)sc1C
pEC50 [12]: 5.10 | solubility thermodynamic (physchem): 4800 µg/mL

SMILES: CCc1cc(C(=O)N2Cc3ccc(CN4CCN(C)CC4)cc3C2)c(O)cc1O
Kd (Heat shock protein HSP90): 0.71 nM | solubility thermodynamic (physchem): 30000 µg/mL | pIC50 (HCT-116): 7.32

— ChEMBL document CHEMBL5120754, “Structural modification aimed for improving solubility of lead compounds in early phase drug discovery” (Bioorg Med Chem, 2022)
